Experimental data reported in ChEMBL document CHEMBL1128822, “Synthesis and biological evaluation of 2,3-diarylthiophenes as selective Cox-2 and Cox-1 inhibitors” (Bioorg Med Chem Lett, 1995).

Columns and labels:
[1] = target: Prostaglandin G/H synthase 1 (Homo sapiens, UniProt P23219); assay: Inhibitory activity against human COX-1 expressed in baculovirus infected Sf9 cells
[2] = target: T1, Prostaglandin G/H synthase 2 (Homo sapiens, UniProt P35354); assay: Inhibitory activity against human COX-2 expressed in baculovirus infected Sf9 cells; type: cell-based
T1 sequence (P35354 whole entry): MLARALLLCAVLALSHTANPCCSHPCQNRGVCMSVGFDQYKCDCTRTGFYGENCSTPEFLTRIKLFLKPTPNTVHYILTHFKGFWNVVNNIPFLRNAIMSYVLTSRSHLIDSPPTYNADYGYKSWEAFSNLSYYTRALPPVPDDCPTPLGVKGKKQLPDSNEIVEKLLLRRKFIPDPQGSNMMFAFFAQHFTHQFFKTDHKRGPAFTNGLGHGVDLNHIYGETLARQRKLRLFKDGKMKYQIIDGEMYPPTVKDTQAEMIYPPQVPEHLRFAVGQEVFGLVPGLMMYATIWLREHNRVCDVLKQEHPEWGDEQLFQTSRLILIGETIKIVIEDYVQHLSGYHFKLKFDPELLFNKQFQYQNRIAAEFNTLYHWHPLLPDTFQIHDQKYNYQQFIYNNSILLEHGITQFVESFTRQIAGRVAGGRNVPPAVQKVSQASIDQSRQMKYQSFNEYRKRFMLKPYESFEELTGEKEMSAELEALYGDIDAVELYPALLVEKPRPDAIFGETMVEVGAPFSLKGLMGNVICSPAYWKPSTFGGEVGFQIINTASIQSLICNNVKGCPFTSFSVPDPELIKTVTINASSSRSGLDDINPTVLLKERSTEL

Prostaglandin G/H synthase 1, sequence (P23219 whole entry): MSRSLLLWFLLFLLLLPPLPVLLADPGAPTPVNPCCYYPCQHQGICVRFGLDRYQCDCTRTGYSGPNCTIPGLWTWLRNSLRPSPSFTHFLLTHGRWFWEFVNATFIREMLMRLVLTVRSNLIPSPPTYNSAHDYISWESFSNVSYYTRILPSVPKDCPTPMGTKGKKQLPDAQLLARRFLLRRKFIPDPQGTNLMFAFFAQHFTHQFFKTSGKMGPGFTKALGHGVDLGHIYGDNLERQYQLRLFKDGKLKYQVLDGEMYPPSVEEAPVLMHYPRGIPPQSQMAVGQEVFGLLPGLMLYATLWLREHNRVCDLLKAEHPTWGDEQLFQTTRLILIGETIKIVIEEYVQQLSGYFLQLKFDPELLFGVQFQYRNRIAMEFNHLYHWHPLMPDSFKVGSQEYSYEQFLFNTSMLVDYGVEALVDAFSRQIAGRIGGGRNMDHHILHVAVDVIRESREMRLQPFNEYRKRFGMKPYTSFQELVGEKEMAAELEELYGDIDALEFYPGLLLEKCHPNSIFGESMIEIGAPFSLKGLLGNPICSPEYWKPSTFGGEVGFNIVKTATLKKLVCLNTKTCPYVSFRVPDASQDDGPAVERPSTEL

Compound	IC50 [1]	IC50 [2]
CSc1ccc(-c2ccsc2-c2ccc(F)cc2)cc1	340 nM	> 30000 nM
C[S+]([O-])c1ccc(-c2ccsc2-c2ccc(F)cc2)cc1 (configuration not stated)	15000 nM	> 30000 nM
CC(C)c1cc(-c2ccc(S(N)(=O)=O)cc2)c(-c2ccc(F)cc2)s1	230 nM	10 nM
COC(=O)c1ccc(-c2ccsc2-c2ccc(F)cc2)cc1	17000 nM	> 30000 nM
O=Cc1ccc(-c2ccsc2-c2ccc(F)cc2)cc1	980 nM	> 30000 nM
CC(=O)c1ccc(-c2ccsc2-c2ccc(F)cc2)cc1	750 nM	> 30000 nM
NS(=O)(=O)c1ccc(-c2ccsc2-c2ccc(F)cc2)cc1	1300 nM	30 nM
CC(C)(O)c1cc(-c2ccc(S(N)(=O)=O)cc2)c(-c2ccc(F)cc2)s1	5400 nM	410 nM
COC(=O)c1cc(-c2ccc(S(N)(=O)=O)cc2)c(-c2ccc(F)cc2)s1	1000 nM	70 nM
O=C(O)Cc1ccc(-c2ccsc2-c2ccc(F)cc2)cc1	–	> 30000 nM
OCc1ccc(-c2ccsc2-c2ccc(F)cc2)cc1	350 nM	> 30000 nM
CCS(=O)(=O)c1ccc(-c2ccsc2-c2ccc(F)cc2)cc1	> 50000 nM	> 30000 nM
O=C(O)c1ccc(-c2ccsc2-c2ccc(F)cc2)cc1	> 50000 nM	> 30000 nM
CS(=O)(=O)c1ccc(-c2sccc2-c2ccc(F)cc2)cc1	> 50000 nM	4300 nM
NC(=O)c1ccc(-c2ccsc2-c2ccc(F)cc2)cc1	3200 nM	> 30000 nM
NS(=O)(=O)c1ccc(-c2sccc2-c2ccc(F)cc2)cc1	2700 nM	670 nM
COC(=O)c1cc(-c2ccc(F)cc2)c(-c2ccc(S(N)(=O)=O)cc2)s1	> 50000 nM	> 30000 nM
CNS(=O)(=O)c1ccc(-c2ccsc2-c2ccc(F)cc2)cc1	> 50000 nM	7200 nM
CS(=O)(=O)c1ccc(-c2sc(Br)cc2-c2ccc(F)cc2)cc1	1100 nM	20 nM
CS(=O)(=O)c1ccc(-c2ccsc2-c2ccc(F)cc2)cc1	> 100000 nM	250 nM
C[Se](=O)(=O)c1ccc(-c2ccsc2-c2ccc(F)cc2)cc1	32000 nM	550 nM
N#Cc1ccc(-c2ccsc2-c2ccc(F)cc2)cc1	210 nM	> 30000 nM
CC(C)(O)c1cc(-c2ccc(F)cc2)c(-c2ccc(S(N)(=O)=O)cc2)s1	> 50000 nM	1600 nM
CC(=O)NS(=O)(=O)c1ccc(-c2ccsc2-c2ccc(F)cc2)cc1	> 50000 nM	5400 nM
